Data set [1] relates to primary human hepatocytes (PHHs) spheroids on the TS-PS system. Briefly: Alamar Blue cell viability of PHHs tethered spheroids on PS plates (TS-PS). The data set is classed as cell-based. Particulars: Hepatocyte, PHHs in TS-PS, 24 hours after treatment, 3 donors. As for the experimental part: Cryopreserved PHHs were purchased commercially from Life Technologies (Carlsbad, CA, USA) and BD Biosciences (Franklin Lakes, NJ, USA). Freshly thawed cells were cultured as described[32] with daily culture media change. Hepatocytes from three different donors (three lots of commercial cells) were used for the experiments and all assays were performed after 72 hours of culture.
Cell viability of hepatocytes was measured 24 hours after treatment with drugs using Alamar Blue cell viability assay according to manufacturer’s instructions. Drugs used for the cell viability assays (Acetaminophen, Troglitazone, Chlorpromazine and Diclofenac) were purchased from Sigma. Stock solutions of drugs were prepared in DMSO and then diluted in media to obtain desired working concentrations. Controls were treated with solvent alone (in absence of test compounds) and considered as 100% viability value.
For orientation: Alamar Blue is a resazurin reagent that responds to reducing activity.

For data set [2], the system named is hepatocyte tethered spheroids. Briefly: Inhibition of spheroid spreading/tethering (live cell imaging of spheroid diameter). The data set is classed as cell-based. Particulars: 24 hour live cell imaging, tethered spheroids on modified PS plates. The procedure: Hepatocytes were cultured as mentioned in section 2.1 and 2.2. Once spheroid formation was observed (2–3 days after cell seeding), cells were treated with DMSO or relevant hepatotoxicants (APAP/troglitazone) at different concentrations. 24 hour live cell imaging was performed starting 2 hours after drug addition using IN Cell Analyzer 2000 Imaging System (GE Healthcare Lifesciences, Buckinghamshire, U.K.). Images were acquired every 2 hours. Images acquired at 2 hours, 8 hours, 16 hours and 24 hours were used for further analysis. Individual spheroids were identified by image segmentation using Matlab Image Processing Toolbox and Statistical Toolbox (Mathworks) and the sizes of the spheroids were determined. Density plots were acquired in R (Version 3.1.2) to show the spheroid size distribution and percentage of spheroids within a certain diameter range at different drug concentrations was plotted in Excel.

The subject of a further data set is hepatocytes. Particulars: cited from earlier work.
For data set [3], the system named is rat hepatocytes tethered spheroids on modified PS plates. Briefly: CellTiter-Glo 3D Cell Viability Assay on tethered spheroids with automated liquid handling. Type of data set: cell-based. Particulars: 200 μM, 24 hours, rat hepatocyte tethered spheroids; DMSO-treated wells 12.32 × 10^6 RLU. As for the experimental part:
Primary hepatocytes were harvested from male Wistar rats using a two-step in situ collagenase perfusion method according to protocols described previously[19],[31]. Freshly isolated rat hepatocytes were seeded onto the different substrates at a density of 1 × 10^5 cells/cm^2 in 96-well microplates and cultured in 100 μl of William’s E culture medium supplemented with 1 mg/mL bovine serum albumin (BSA), 10 ng/mL epidermal growth factor, […] insulin, 5 nM dexamethasone, 50 ng/mL linoleic acid, 100 units/mL penicillin and […]. Media was changed daily during the entire culture period. For collagen monolayer culture, neutralized 1.5 mg/ml Type I bovine collagen (Advanced BioMatrix, San Diego, CA, USA) was coated on the surface of the microplates.
Cell attachment and tethered spheroid formation was monitored using phase contrast microscopy for a period of seven days. In addition, CellTiter-Glo 3D Cell Viability Assay (Promega, Madison, Wisconsin, USA), which determines the number of viable cells present in a 3D cell culture/spheroid by quantifying the amount of ATP present, was used to test the variability in cell attachment across the plate and adaptation of the plate to an automated liquid handling system 5 days after cells seeding. […] After that, CellTiter-Glo 3D was added to each of the wells and the relative light units (RLU) were quantified.
(In general: ATP-based viability assays read luminescence as a measure of living cells.)

The text below walks through data of paper PMC7075904, “Tethered primary hepatocyte spheroids on polystyrene multi-well plates for high-throughput drug safety testing” (Scientific Reports, 2020).

The structures appear in SMILES notation. Like-named read-outs stand apart in the source and are kept apart here.

Molecule `O=C(O)Cc1ccccc1Nc1c(Cl)cccc1Cl` [Diclofenac] gave an IC50 in data set [1] of 4000 µM.

For `Cc1c(C)c2c(c(C)c1O)CCC(C)(COc1ccc(CC3SC(=O)NC3=O)cc1)O2` (stereo not drawn) [Troglitazone], the IC50 was 10 µM in data set [2] (read-out: Concentration at which spheroids of diameter 90–120 μm decreased by 50% compared to untreated control), 100 µM in data set [1] and 140 µM in the data set with hepatocytes (read-out: IC50 (reported)).

As for `CN(C)CCCN1c2ccccc2Sc2ccc(Cl)cc21` [Chlorpromazine], in data set [1], the IC50 came out at 122 µM. In data set [3], the “CellTiter-Glo 3D signal (relative light units)” value is 1.55 × 10^4 RLU.

Take `CC(=O)Nc1ccc(O)cc1` [Acetaminophen]: the IC50 in data set [2] (read-out: IC50 using changes in cellular dynamics (spheroids of diameter 90–120 μm decreased by 50% compared to untreated control)) was 5000 µM; in data set [1], 50000 µM; in the data set with hepatocytes (read-out: IC50 (conventional cell viability assays)), 8000 to 40000 µM.
